Test results as given in ChEMBL document CHEMBL1201862, “PubChem BioAssay data set” (2004).
Activity calls are given as the source filed them.

Experiments:
[1] = biological target: Voltage-dependent T-type calcium channel subunit alpha-1H (Homo sapiens, UniProt O95180); format: functional;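 also: channel activity triggered by adding a high calcium stimulation buffer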
[2] = HepG2 cell cytotoxicity, dose response, cytotoxicity control for non-replicating M. tuberculosis project (AID 489018); format: functional; conditions: Mycobacterium tuberculosis
[3] = THP-1 cell cytotoxicity, dose response, cytotoxicity control for non-replicating M. tuberculosis project (AID 489025); format: functional
cells = format: functional
[4] = Vero E6 cell cytotoxicity, dose response, cytotoxicity control for non-replicating M. tuberculosis project, secondary assay (AID 492998); format: functional, VeroE6; conditions: Vero C1008
[5] = biological target: T1, Short transient receptor potential channel 4 (Mus musculus, UniProt Q9QUQ5); test: mouse TRPC4 channel activators, dose response, cell-based, HEK293 TRPC4/mu-opioid, Fluo-4 calcium (AID 434937); format: functional
T1 sequence (Q9QUQ5 whole entry): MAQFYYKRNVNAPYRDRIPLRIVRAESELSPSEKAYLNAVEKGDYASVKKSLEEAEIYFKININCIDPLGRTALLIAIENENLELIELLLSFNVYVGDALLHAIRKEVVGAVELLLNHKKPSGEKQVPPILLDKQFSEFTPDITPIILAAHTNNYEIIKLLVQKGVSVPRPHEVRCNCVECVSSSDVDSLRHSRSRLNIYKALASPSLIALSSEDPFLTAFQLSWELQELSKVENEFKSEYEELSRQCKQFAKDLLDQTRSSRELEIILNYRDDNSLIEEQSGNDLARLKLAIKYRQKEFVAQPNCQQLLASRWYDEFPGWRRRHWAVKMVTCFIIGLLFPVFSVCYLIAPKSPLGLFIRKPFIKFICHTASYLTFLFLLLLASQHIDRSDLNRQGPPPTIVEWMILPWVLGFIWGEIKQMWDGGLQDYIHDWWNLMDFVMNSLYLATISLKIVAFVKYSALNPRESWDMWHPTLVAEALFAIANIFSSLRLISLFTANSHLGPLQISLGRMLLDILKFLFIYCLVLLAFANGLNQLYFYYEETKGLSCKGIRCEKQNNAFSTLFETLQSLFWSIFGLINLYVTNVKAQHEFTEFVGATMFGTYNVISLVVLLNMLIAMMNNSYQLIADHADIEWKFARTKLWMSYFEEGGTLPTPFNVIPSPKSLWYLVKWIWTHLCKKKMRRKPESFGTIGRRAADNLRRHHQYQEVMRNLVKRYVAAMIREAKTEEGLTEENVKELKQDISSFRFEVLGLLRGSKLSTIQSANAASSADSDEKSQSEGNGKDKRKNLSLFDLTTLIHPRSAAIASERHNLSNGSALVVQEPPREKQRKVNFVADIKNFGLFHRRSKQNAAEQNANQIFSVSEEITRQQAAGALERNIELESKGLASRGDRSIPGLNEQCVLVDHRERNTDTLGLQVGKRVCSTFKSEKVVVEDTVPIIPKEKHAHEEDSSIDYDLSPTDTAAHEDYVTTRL

HeLa = test: HeLa cell cytotoxicity, dose response, cytotoxicity control for MITF activator project, CellTiter-Glo luminescence, cherry-pick samples (AID 540259); format: functional, cell-based; conditions: Homo sapiens
[6] = biological target: DNA dC->dU-editing enzyme APOBEC-3A (Homo sapiens, UniProt P31941); test: Dose Response confirmation of small molecule APOBEC3A DNA Deaminase Inhibitors via a fluorescence-based single-stranded DNA deaminase assay. [Related pubchem assays (depositor defined):AID493011, AID493024]; format: functional
[7] = biological target: Polyadenylate-binding protein 1 (Homo sapiens, UniProt P11940); test: PABP poly(A) RNA binding inhibitors, primary screen, biochemical, fluorescence polarization, uHTS (AID 2014)
[8] = biological target: DNA dC->dU-editing enzyme APOBEC-3G (Homo sapiens, UniProt Q9HC16); format: functional;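 also: Dose-response counterscreen measuring inhibition of APOBEC3G DNA deaminase activity, run while confirming APOBEC3A inhibitors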
[9] = biological target: Eukaryotic translation initiation factor 4H (Homo sapiens, UniProt Q15056); test: human eIF4H binding inhibitors, primary screen, translation initiation inhibitor project, biochemical, uHTS, fluorescence polarization (AID 2012)
Hexokinase = biological target: T2, Hexokinase (Trypanosoma brucei, UniProt Q38C41); test: Confirmation assay for inhibitors of Trypanosoma brucei hexokinase 1-Analogue-first series. [Related pubchem assays (depositor defined):AID1430, AID1632, AID2516, AID2560, AID2579, AID2600, AID449725, AID492951]; format: functional
T2 sequence (Q38C41 whole entry): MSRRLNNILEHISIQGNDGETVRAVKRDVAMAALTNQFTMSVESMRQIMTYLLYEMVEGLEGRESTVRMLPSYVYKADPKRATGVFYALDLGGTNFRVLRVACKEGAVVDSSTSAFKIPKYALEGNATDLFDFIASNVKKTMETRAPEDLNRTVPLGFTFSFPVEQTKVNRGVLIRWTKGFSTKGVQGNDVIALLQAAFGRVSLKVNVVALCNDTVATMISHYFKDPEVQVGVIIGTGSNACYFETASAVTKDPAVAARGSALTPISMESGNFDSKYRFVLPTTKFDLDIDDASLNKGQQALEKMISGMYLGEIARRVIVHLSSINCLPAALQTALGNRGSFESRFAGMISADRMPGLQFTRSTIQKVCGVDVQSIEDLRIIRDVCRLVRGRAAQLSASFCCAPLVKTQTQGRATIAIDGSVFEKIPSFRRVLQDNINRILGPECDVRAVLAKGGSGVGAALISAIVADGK

[10] = Luminescence Cell-Based Dose Retest to Confirm Inhibitors of Cancer Stem Cells. [Related pubchem assays (depositor defined):AID2717, AID2721]; format: functional; conditions: Homo sapiens
[11] = biological target: Beta-2 adrenergic receptor (Homo sapiens, UniProt P07550); test: beta2AR agonists driving receptor internalization, dose response, cell-based, FAP fluorogen, flow cytometry, cherry pick 1 (AID 588763); format: functional
Chain of Beta-2 adrenergic receptor (P07550 whole entry): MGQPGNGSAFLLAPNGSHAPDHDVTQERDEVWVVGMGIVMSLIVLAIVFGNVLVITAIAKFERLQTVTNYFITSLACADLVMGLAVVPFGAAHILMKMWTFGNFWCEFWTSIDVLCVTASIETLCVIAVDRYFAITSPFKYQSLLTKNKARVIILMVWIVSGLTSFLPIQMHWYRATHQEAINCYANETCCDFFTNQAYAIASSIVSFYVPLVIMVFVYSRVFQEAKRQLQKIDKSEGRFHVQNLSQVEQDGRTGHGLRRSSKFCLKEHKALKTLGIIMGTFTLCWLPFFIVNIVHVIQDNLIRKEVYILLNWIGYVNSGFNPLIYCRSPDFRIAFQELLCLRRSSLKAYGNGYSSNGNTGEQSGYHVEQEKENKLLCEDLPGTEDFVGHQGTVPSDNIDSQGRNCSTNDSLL

Chain of DNA dC->dU-editing enzyme APOBEC-3G (Q9HC16 whole entry): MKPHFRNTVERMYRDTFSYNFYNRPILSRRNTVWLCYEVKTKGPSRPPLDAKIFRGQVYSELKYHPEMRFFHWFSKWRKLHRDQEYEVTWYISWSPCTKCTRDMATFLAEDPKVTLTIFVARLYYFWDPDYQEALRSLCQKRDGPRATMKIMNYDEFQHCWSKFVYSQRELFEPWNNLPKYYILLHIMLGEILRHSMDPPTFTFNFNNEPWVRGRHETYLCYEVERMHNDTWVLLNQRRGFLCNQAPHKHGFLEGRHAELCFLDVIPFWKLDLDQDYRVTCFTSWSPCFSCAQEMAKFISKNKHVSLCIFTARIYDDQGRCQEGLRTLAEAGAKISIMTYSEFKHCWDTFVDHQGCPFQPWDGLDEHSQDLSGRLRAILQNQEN
Chain of Voltage-dependent T-type calcium channel subunit alpha-1H (O95180 whole entry): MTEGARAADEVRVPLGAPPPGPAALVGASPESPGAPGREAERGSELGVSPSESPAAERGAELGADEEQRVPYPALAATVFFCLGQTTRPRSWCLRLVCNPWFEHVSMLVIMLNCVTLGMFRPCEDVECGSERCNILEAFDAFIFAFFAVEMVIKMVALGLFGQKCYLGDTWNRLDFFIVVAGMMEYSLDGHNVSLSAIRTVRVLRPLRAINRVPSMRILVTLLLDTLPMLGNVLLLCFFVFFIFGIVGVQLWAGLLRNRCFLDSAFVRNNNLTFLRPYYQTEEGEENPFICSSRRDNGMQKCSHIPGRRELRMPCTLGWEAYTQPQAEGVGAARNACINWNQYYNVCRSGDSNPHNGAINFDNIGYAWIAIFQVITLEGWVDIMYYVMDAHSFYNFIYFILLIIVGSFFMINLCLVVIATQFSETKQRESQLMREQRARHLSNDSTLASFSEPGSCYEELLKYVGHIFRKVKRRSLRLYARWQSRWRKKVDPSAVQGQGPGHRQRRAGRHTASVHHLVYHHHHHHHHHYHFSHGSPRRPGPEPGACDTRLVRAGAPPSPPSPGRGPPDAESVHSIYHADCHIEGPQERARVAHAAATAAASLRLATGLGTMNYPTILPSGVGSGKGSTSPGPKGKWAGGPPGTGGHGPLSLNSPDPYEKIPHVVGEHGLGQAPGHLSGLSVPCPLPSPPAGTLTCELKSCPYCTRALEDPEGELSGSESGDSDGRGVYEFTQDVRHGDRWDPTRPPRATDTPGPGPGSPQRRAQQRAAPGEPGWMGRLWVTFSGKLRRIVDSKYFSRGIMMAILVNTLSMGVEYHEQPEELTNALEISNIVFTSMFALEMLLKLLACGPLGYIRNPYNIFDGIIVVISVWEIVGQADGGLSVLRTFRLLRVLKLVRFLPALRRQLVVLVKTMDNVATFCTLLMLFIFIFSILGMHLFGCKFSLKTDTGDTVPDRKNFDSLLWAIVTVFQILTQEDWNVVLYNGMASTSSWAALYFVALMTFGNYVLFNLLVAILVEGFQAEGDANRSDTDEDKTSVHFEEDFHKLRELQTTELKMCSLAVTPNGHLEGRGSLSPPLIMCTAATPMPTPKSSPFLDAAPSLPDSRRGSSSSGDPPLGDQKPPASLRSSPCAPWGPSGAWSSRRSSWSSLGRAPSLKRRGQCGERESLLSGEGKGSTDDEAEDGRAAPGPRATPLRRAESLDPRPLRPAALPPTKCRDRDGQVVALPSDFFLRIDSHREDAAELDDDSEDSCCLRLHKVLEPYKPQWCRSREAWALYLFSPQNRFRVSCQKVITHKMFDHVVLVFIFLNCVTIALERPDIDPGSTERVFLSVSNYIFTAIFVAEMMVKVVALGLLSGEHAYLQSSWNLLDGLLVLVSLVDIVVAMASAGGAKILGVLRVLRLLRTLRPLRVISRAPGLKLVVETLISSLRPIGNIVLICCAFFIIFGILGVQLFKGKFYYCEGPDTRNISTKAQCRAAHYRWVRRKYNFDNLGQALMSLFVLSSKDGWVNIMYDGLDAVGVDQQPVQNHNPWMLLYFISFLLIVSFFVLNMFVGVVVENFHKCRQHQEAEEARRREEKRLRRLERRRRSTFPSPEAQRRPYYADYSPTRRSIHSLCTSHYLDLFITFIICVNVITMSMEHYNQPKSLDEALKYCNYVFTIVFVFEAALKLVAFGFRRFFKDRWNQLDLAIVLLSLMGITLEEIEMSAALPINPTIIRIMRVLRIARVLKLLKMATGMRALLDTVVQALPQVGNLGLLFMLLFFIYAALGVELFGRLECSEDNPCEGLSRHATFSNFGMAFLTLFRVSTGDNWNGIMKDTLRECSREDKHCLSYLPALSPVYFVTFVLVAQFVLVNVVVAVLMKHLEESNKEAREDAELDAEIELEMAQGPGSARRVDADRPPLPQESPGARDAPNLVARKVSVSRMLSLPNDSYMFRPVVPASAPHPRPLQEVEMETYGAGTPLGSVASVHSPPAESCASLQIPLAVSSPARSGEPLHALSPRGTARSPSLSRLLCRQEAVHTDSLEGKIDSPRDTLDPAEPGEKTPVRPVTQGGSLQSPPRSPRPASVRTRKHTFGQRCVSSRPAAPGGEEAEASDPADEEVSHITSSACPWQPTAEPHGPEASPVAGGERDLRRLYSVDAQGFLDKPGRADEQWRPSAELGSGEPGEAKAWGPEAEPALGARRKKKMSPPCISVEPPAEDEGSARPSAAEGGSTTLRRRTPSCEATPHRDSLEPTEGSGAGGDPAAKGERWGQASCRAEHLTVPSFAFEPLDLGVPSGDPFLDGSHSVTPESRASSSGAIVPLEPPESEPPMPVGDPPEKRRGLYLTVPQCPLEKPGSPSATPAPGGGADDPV
Chain of Polyadenylate-binding protein 1 (P11940 whole entry): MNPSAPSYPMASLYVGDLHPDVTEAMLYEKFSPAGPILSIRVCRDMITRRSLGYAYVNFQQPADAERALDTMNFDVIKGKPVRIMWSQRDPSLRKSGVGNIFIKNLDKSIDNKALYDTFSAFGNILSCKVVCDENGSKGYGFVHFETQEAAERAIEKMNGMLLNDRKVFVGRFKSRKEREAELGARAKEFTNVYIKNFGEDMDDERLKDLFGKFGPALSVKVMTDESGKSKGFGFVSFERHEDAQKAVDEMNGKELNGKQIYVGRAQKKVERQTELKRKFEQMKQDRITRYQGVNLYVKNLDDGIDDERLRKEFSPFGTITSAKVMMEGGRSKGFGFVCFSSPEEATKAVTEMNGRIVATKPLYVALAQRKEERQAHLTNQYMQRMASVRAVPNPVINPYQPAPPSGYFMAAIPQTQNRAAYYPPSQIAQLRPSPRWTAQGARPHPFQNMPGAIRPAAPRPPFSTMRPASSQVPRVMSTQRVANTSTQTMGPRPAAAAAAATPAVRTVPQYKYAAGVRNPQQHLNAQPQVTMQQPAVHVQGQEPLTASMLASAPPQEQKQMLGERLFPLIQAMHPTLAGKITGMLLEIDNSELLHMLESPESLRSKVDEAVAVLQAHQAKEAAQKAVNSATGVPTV
Chain of DNA dC->dU-editing enzyme APOBEC-3A (P31941 whole entry): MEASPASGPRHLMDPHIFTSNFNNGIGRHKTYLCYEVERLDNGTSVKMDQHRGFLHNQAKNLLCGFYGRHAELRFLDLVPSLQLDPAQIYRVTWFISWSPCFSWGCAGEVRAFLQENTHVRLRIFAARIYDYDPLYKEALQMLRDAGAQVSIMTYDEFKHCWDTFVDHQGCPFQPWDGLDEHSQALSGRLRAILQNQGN

Cc1ccc(CNC(=O)C[S+]([O-])Cc2nc(-c3ccccc3C)oc2C)cc1 (configuration not stated)
EC50 [1]: 6 µM (active)

CN(C)c1c2ccccc2nc2c(F)c(F)c(F)c(F)c12
CC50 [2]: > 20 µM (active) | CC50 [3]: 22.9 µM (active) | IC50 (cells): 17.7 µM (active) | CC50 [4]: > 20 µM (active)

CC1CC(C)CN(CCCNC(=O)c2csc3c2CCCCC3)C1 (configuration not stated)
EC50 [5]: 4.73 µM (active)

CCCNC(=O)Nc1nc2ccccc2s1
AC50 (HeLa): 191 µM (active)

CC(CCc1ccccc1)NC(=O)CN1CCN(Cc2ccc(Cl)cc2)C1=O (configuration not stated)
EC50 [1]: 4.5 µM (active)

COc1ccc(/C=C2\C(=O)NCC(=O)N2C)cc1
IC50 [6]: 2.81 µM (active) | IC50 [7]: 6.16 µM (active) | IC50 [8]: 6.99 µM (active) | IC50 [9]: > 100 µM (inactive)

Cc1ccc(NC(=O)C[S+]([O-])Cc2nc(-c3ccc(C)cc3)oc2C)cc1 (configuration not stated)
EC50 [1]: 2.45 µM (active)

Cc1ccc(C(=O)Nc2cc(Cl)ccc2C(=O)O)c(C)c1
IC50 (Hexokinase): > 25 µM (inactive)

COc1cc(OC)cc(-c2cc3cc(F)ccc3cn2)c1
AC50 (HeLa): 50.6 µM (active)

O=C(NCc1ccc2c(c1)OCO2)c1ccc(CN2CCc3ccccc3C2)cc1
EC50 [1]: 7.5 µM (active)

O=C(Cn1sc2ccccc2c1=O)N1CCOCC1
IC50 (Hexokinase): > 25 µM (inactive)

Brc1ccc(/C=N/Nc2ccccc2)cc1
AC50 [10]: 3.98 µM (active) | AC50 (HeLa): 65.5 µM (active)

Cc1ccc(Sc2cc(N3CCOCC3)nc(-c3ccccc3)n2)cc1
EC50 [11]: 4.82 µM (active)

CCn1c(=O)cc(OCC(=O)NCCCN2CC(C)CC(C)C2)c2ccccc21 (configuration not stated)
EC50 [5]: 0.473 µM (active)

COc1ccc(C(C)=O)cc1COc1ccc(Cl)cc1Cl
EC50 [11]: 2.67 µM (active)

COc1cc(/C=C/c2cccc[n+]2C)ccc1OCC(=O)Nc1ccccc1C
IC50 [6]: 1.56 µM (active) | IC50 [7]: 3.83 µM (active) | IC50 [8]: 1.29 µM (active) | IC50 [9]: > 100 µM (inactive)

O=C(Nc1ccc2c(c1)CCC2)C1CCCN(c2ncccn2)C1 (configuration not stated)
AC50 (HeLa): 104 µM (active)

COc1ccccc1NC(=O)c1cc[n+](C)cc1
IC50 [6]: 2.48 µM (active) | IC50 [7]: 5.63 µM (active) | IC50 [8]: 2.3 µM (active) | IC50 [9]: 90.8 µM (active)

N#Cc1ccccc1NC(=O)Cn1sc2ccccc2c1=O
IC50 (Hexokinase): 7.21 µM (active)
